According to ChEMBL document CHEMBL3044746, “Molecular modeling and pharmacophore approach for structural requirements of some 2-substituted-1-naphthols derivatives as potent 5-lipoxygenase inhibitors” (Med Chem Res, 2013):

Target: T1, Polyunsaturated fatty acid 5-lipoxygenase (Rattus norvegicus, UniProt P12527)
T1 sequence (P12527 whole entry): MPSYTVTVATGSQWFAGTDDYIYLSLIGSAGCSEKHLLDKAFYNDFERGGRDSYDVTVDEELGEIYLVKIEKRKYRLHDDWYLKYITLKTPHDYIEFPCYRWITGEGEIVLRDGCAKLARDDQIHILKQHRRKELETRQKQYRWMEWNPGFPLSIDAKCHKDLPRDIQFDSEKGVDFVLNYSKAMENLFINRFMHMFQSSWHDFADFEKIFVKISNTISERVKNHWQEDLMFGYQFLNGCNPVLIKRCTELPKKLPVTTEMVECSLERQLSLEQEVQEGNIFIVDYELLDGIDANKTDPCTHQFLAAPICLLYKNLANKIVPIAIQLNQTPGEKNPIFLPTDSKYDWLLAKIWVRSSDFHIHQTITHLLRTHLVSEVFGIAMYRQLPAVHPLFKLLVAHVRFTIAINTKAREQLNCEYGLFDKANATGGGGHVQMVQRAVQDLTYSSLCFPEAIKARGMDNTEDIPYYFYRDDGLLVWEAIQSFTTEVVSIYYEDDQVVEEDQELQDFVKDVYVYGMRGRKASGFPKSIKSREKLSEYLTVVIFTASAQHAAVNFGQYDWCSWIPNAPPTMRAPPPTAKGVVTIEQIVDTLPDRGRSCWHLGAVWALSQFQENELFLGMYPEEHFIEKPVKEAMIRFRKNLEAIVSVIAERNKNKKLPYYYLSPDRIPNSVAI
Assay: Inhibition of 5-lipoxygenase in Rattus norvegicus Rat basophil leukemia cells (RBL) cells

SMILES	IC50 [nM]
CCc1ccc2ccccc2c1O	180
O=C(Oc1ccccc1)c1cc(Cc2ccccc2)c(O)c2ccccc12	160
CCOc1ccccc1Cc1ccc2ccccc2c1O	57
Oc1c(/C=C/c2ccccc2)ccc2ccccc12	160
